Reference: US12415830B2, “Steroid compound, and use thereof and preparation method therefor” (Chengdu Kanghong Pharmaceutical Co Ltd, priority 2019, dated 2025)
pEC50: −log10 of the molar value. Read-outs that look alike come from different tables or passages of the source.

Tests used:
GABAA4 (α4β3δ) receptor = target: T1, GABAA4 (α4β3δ) receptor (Homo sapiens, UniProt P28472+P48169); experiment: Patch-clamp electrophysiology, compound alone or with 10 nM GABA (Table 3); type: cell-based; settings: for Emax: relative to peak current in GABA only
T1 construct: expressed in transfected cells; host or cells: HEK293 (transient transfection, plasmids 1:1:1)
Experimental: The present invention applies the two subunits of the recombinant GABAA receptor: α1β2γ2 and α4β3δ to evaluate the potency of the exemplary compounds in vitro by patch-clamp electrophysiology.
Extracellular fluid: 140 mM NaCl, 5 mM CsCl, 2 mM CaCl2·2H2O, 1 mM MgCl2·6H2O, 5 mM HEPES, 10 mM D-Glucose, pH=7.4 (NaOH).
Intracellular fluid: 130 mM CsCl, 0.1 mM CaCl2·H2O, 2 mM MgCl2·6H2O, 1.1 mM EGTA, 5 mM Na2-ATP, 10 mM HEPES, pH=7.2 (CsOH).
HEK293 cell line was cultured in DMEM containing 10% fetal bovine serum and 5% carbon dioxide at 37° C.
Cell passage: The old medium was removed, and the cells were washed once with PBS. Then 1 mL 0.25%-Trypsin-EDTA solution was added to digest cells. The culture dish was incubated at 37° C. in pre-warmed incubator for 0.5 minutes. As soon as cells were detached, about 5 mL 37° C. pre-warmed complete medium was added. Cell aggregates were dissociated by gentle pipetting. The cell suspension was transferred into a sterile centrifuge tube and then the cell suspension was be spun at approximately 1000 rpm for 5 minutes. The cells were amplified or maintained by seeding 2.5×10^5 cells in a 6 cm dish (final medium volume: 5 mL). For transfection, 8×10^3 cells were plated onto coverslips, and cultured in a 24-well plate (final medium volume: […]).
Transfection: Second day, the transfection of GABAA4 (α4, β3, δ plasmid ratio 1:1:1) was performed. The X-tremeGENE HP DAN Transfection Reagents kit were used. The ratio of the plasmid and transfection reagent was 1 μg: 2 μL. The amount of plasmid in the 24-well plate was 0.5 μg per well, and the transfection reagent was 1 μL. The following specific steps were taken for preparing the 12 wells: The 600 μL Opti-MEM was added to a sterile centrifuge tube along with 6 μg of plasmid and was allowed to mix well; Then, the 12 μL of transfection reagent was added, mixed well following 15 min incubation at room temperature. The transfection complex was then inoculated into the cell, 50 μL per well, and the transfection complex was lightly stirred and mixed.
This mixture was changed on the third day, and the patch-clamp was performed on the fourth day.
Glass pipette (BF 150-86-10, Sutter Instruments) was pulled using a micropipette puller (P97, Sutter Instruments). The glass pipette was manipulated using a micro-manipulator (MP285, Sutter Instruments) under the microscope (IX71, Olympus). After touching the cell, a slight suction was applied to achieve high seal resistance (GQ). Fast capacitance (in pF) compensation was made after achieving high seal, and the membrane was broken. Cell capacitance (in pF) compensation was made from whole-cell capacitance compensation after the whole cell mode was achieved. No leak subtraction was made.
The test and control solutions flowed into a recording chamber mounted on the stage of an inverted microscope via a gravity-fed solution delivery system. During the experiment, solutions were withdrawn from the recording chamber by vacuum aspiration. Each concentration was tested at multiple times. All tests were performed at room temperature.
Whole cell model recorded GABAA4 receptors current experimental protocol was indicated as follows: When sealing, cell was at a holding potential of −70 mV, with gap-free mode to record the peak current. The cell would be applied with 10 nM GABA to active current. After the test articles application for 30 s, each concentration of test articles was applied with 10 nM GABA followed by 2 minutes washout using extracellular solution. Finally, 10 μM GABA was used as a positive control. The data were collected by EPC-10 amplifier and stored in PatchMaster (HEKA) software.
The following criteria are used to determine whether the data is acceptable: • (1) Electrode resistance <5MΩ • (2) Seal resistance >1GΩ • (3) The start of access resistance <15 MΩ • (4) The end of access resistance <15 MΩ • (5) No obvious spontaneous current decay. • (6) No obvious current leakage when the membrane potential is-70 mv. […]

mice [1] = experiment: Light-dark shuttle box anti-anxiety test; type: in vivo; settings: 5 consecutive days, 30 min after last administration, male mice
Description: 57.3.1 light-dark shuttle box: The light-dark shuttle box is a standard and well characterized assay for anxiolytic effects of the exemplary compounds. Mice naturally avoid the light of the box because light makes mice evasive and stressful, but the exploration habit of mice also prompts mice to try to explore a bright box. Increased time on the light of the box by the exemplary compounds reflects an anxiolytic effect on mice. The experimental mice were randomly divided into 5 groups based on weight, including a negative control group, two different dosage groups (1 mg/kg and 3 mg/kg) of the tested compounds (KH004 or KH022), and every group had 10 male mice. Mice were administered with corresponding dosage for tested intervention for 5 consecutive days in advance, and conducting anxiolytic experiments after 30 min of the last administration. The retention time in the light box was selected as the main index for evaluating the anti-anxiety effect of KH004 and KH022.

mice [2] = experiment: Elevated Plus Maze (EPM) testing; type: in vivo; settings: 5 consecutive days, 30 min after last administration, male mice
Description: 57.3.2 Elevated Plus Maze (EPM) testing: EPM for exploratory behavior was used to assess general motor and anxiety-like behavior that was consisting of two open arms and two closed arms extending from a common central platform, thus forming anxiety-like symptoms. The anxiolytic compound would relieve the anxiety conflict status of animals in the test system. The experimental mice were randomly divided into 4 groups based on weight, including a negative control group, two different dosage groups (1 mg/kg and 3 mg/kg) of test compounds (KH004 or KH022), and every group had 10 male mice. Mice were administered with corresponding dosage for test intervention for 5 consecutive days in advance, and conducting anxiolytic experiments after 30 min of the last administration. The percentage of the retention time (latency) of mice open arms were used as the main index to evaluate the anxiolytic effect of KH004 and KH022, the results are shown in Table 5.

[3] = with 10 nM GABA, read-out: EC50 (with 10 nM GABA)
[4] = with 10 nM GABA, read-out: Emax (with 10 nM GABA)
[5] = without GABA, read-out: Emax (without GABA)

T1 sequence (P48169 36-554): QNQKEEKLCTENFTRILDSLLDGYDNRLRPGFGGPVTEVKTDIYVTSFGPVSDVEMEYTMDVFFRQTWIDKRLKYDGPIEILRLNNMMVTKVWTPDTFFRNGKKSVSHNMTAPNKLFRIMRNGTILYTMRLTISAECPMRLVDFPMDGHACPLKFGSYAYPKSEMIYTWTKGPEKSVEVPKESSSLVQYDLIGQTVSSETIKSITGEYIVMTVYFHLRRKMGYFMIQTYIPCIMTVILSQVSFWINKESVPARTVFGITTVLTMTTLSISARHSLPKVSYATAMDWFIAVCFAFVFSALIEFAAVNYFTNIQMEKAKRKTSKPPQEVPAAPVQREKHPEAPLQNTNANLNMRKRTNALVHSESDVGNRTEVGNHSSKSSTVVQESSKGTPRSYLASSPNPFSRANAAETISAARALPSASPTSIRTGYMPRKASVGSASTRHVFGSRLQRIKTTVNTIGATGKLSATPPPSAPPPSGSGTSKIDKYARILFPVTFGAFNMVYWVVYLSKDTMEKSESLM
T1 sequence (P28472 26-473): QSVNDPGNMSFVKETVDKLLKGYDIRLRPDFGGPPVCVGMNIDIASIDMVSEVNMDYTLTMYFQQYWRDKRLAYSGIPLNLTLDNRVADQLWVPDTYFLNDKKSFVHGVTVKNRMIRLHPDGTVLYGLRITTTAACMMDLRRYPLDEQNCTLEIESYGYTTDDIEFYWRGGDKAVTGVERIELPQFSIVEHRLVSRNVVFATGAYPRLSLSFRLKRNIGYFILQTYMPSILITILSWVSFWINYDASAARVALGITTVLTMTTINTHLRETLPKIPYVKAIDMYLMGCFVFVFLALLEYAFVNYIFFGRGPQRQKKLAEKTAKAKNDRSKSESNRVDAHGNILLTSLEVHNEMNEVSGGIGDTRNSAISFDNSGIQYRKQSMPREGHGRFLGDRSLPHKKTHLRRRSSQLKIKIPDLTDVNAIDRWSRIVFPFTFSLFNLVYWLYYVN
T1 sequence (O14764 25-452 partner): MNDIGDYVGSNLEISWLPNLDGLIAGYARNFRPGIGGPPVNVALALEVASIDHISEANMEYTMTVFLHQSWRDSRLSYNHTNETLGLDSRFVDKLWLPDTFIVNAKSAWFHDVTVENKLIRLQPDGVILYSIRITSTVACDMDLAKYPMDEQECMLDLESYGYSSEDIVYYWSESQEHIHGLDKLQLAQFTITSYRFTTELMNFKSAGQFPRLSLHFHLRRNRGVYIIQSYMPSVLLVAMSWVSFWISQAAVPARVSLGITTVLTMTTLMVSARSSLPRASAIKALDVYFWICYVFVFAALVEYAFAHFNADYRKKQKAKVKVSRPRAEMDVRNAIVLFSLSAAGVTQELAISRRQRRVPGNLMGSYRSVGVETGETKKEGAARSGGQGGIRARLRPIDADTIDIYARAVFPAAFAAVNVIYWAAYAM

SMILES | pEC50 (GABAA4 (α4β3δ) receptor; [3]) | Emax (GABAA4 (α4β3δ) receptor; [4]) [%] | pEC50 (GABAA4 (α4β3δ) receptor; without GABA, read-out: EC50 (without GABA)) | Emax (GABAA4 (α4β3δ) receptor; [5]) [%] | The retention time in the light box (mice [1]; 1.0 mg/kg) [%] | The retention time in the light box (mice [1]; 3.0 mg/kg) [%] | The retention time of mice open arms (mice [2]; 1 mg/kg) [%] | The retention time of mice open arms (mice [2]; 3 mg/kg) [%] | pEC50 (GABAA4 (α4β3δ) receptor; EC50 (with 10 nM GABA), with 10 nM GABA)
C[C@]12CC[C@@H](O)C[C@@H]1CC[C@@H]1[C@@H]2CC[C@]2(C)[C@@H](C(=O)Cn3ncnn3)CCC[C@@H]12 [KH004] | 6.87 | 172 | 6.77 | 158 | 50.30 ± 6.89 | 53.91 ± 9.37 | 27.21 ± 11.15 | 36.44 ± 13.28 | –
C[C@@]1(O)CC[C@H]2[C@H](CC[C@@H]3[C@@H]2CC[C@]2(C)[C@@H](C(=O)Cn4cc(C#N)cn4)CC[C@@H]32)C1 [The control, reference compound] | – | 149 | – | 114 | – | – | – | – | 6.66
C[C@@]1(O)CC[C@@]2(C)[C@@H](CC[C@@H]3[C@@H]2CC[C@]2(C)[C@@H](C(=O)Cn4ncnn4)CCC[C@@H]32)C1 [KH022] | 6.41 | 88.6 | – | 45.8 | 50.00 ± 4.59 | 56.66 ± 7.96 | 31.40 ± 16.41 | 39.46 ± 11.82 | –
